Laboratory results reported in patent publication US12152020B2, “Pesticidally active azole-amide compounds” (SYNGENTA PARTICIPATIONS AG, priority 2018, dated 2024).

Experiments:
Type in all cases: in vivo
[1] = system: Chilo suppressalis (Striped Rice Stemborer); assay: Example B4: Chilo suppressalis, artificial diet, L2 larvae; settings: 144 h, application rate of 200 ppm, 6 days after infestation, in comparison to untreated samples, read-out: control in at least one of the categories (mortality, anti-feedant effect, or growth inhibition)
Procedure: Example B4: Chilo suppressalis (Striped Rice Stemborer)
24-well microtiter plates with artificial diet were treated with aqueous test solutions prepared from 10′000 ppm DMSO stock solutions by pipetting. After drying, the plates were infested with L2 larvae (6-8 per well). The samples were assessed for mortality, anti-feeding effect, and growth inhibition in comparison to untreated samples 6 days after infestation. Control of Chilo suppressalis by a test sample is given when at least one of the categories mortality, anti-feedant effect, and growth inhibition is higher than the untreated sample.

[2] = system: Plutella xylostella (Diamond Back Moth); assay: Example B5: Plutella xylostella, artificial diet in 24-well plates, eggs; settings: 192 h, application rate of 200 ppm, 8 days after infestation, in comparison to untreated samples, read-out: effect in at least one of the two categories (mortality or growth inhibition)
Procedure: Example B5: Plutella xylostella (Diamond Back Moth)
24-well microtiter plates with artificial diet were treated with aqueous test solutions prepared from 10′000 ppm DMSO stock solutions by pipetting. After drying, Plutella eggs were pipetted through a plastic stencil onto a gel blotting paper and the plate was closed with it. The samples were assessed for mortality and growth inhibition in comparison to untreated samples 8 days after infestation.
The following compounds gave an effect of at least 80% in at least one of the two categories (mortality or growth inhibition) at an application rate of 200 ppm: • P1, P2, P3, P4, P5, P7, P8, P9, P14, P15, P16, P17, P18, P21, P22, P23, P24, P25, P27, P28, P29, P30, P31, P32, P33, P34, P35, P36

[3] = system: Frankliniella occidentalis (Western Flower Thrips); assay: Example B3: Frankliniella occidentalis feeding/contact activity, sunflower leaf discs; settings: foliar, 168 h, application rate of 200 ppm, population of mixed ages, 7 days after infestation
Procedure: Example B3: Frankliniella occidentalis (Western Flower Thrips):Feeding/Contact Activity
Sunflower leaf discs were placed on agar in 24-well microtiter plates and sprayed with aqueous test solutions prepared from […] stock solutions. After drying the leaf discs were infested with a Frankliniella population of mixed ages. The samples were assessed for mortality 7 days after infestation.

[4] = system: Euschistus heros (Neotropical Brown Stink Bug); assay: Example B2: Euschistus heros, soybean leaves sprayed, N2 nymphs; settings: 120 h, application rate of 200 ppm, 5 days after infestation, in comparison to untreated samples, read-out: effect in at least one of the two categories (mortality or growth inhibition)
Procedure: Example B2: Euschistus heros (Neotropical Brown Stink Bug)
Soybean leaves on agar in 24-well microtiter plates were sprayed with aqueous test solutions prepared from 10′000 ppm DMSO stock solutions. After drying the leaves were infested with N2 nymphs. The samples were assessed for mortality and growth inhibition in comparison to untreated samples 5 days after infestation.
The following compounds gave an effect of at least 80% in at least one of the two categories (mortality or growth inhibition) at an application rate of 200 ppm: • P1, P2, P3, P7, P11, P12, P16, P17, P18, P22, P25, P29, P32, P33, P37, P38

[5] = system: Diabrotica balteata (Corn Root Worm); assay: Example B1: Diabrotica balteata, maize sprouts sprayed, L2 larvae; settings: 96 h, application rate of 200 ppm, 4 days after infestation, in comparison to untreated samples, read-out: effect in at least one of the two categories (mortality or growth inhibition)
Procedure: Example B1: Diabrotica balteata (Corn Root Worm)
Maize sprouts placed onto an agar layer in 24-well microtiter plates were treated with aqueous test solutions prepared from 10′000 ppm DMSO stock solutions by spraying. After drying, the plates were infested with L2 larvae (6 to 10 per well). The samples were assessed for mortality and growth inhibition in comparison to untreated samples 4 days after infestation.
The following compounds gave an effect of at least 80% in at least one of the two categories (mortality or growth inhibition) at an application rate of 200 ppm: • P2, P3, P4, P5, P6, P7, P8, P14, P15, P16, P17, P18, P19, P20, P21, P22, P23, P24, P25, P27, P28, P29, P30, P31, P32, P33, P34, P35

[6] = system: Myzus persicae (Green Peach Aphid); assay: Example B13: Myzus persicae, sucrose solution under Parafilm, 96-well; settings: 120 h, application rate of 50 ppm, 5 days after infestation
Source text: Example B13: Myzus persicae (Green Peach Aphid)
Test compounds prepared from 10′000 ppm DMSO stock solutions were applied by a liquid handling robot into 96-well microtiter plates and mixed with a sucrose solution. Parafilm was stretched over the 96-well microtiter plate and a plastic stencil with 96 holes was placed onto the plate. Aphids were sieved into the wells directly onto the Parafilm. The infested plates were closed with a gel blotting card and a second plastic stencil and then turned upside down. The samples were assessed for mortality 5 days after infestation.

[7] = system: Spodoptera littoralis (Egyptian Cotton Leaf Worm); assay: Example B9: Spodoptera littoralis, cotton leaf discs sprayed, L1 larvae; settings: foliar, 72 h, application rate of 200 ppm, five L1 larvae, 3 days after infestation, in comparison to untreated samples, read-out: control in at least one of the categories (mortality, anti-feedant effect, or growth inhibition)
Procedure: Example B9: Spodoptera littoralis (Egyptian Cotton Leaf Worm)
Cotton leaf discs were placed onto agar in 24-well microtiter plates and sprayed with aqueous test solutions prepared from 10′000 ppm DMSO stock solutions. After drying the leaf discs were infested with five L1 larvae. The samples were assessed for mortality, anti-feeding effect, and growth inhibition in comparison to untreated samples 3 days after infestation. Control of Spodoptera littoralis by a test sample is given when at least one of the categories mortality, anti-feedant effect, and growth inhibition is higher than the untreated sample.

[8] = system: Myzus persicae (Green Peach Aphid); assay: Example B8: Myzus persicae intrinsic activity, sucrose solution under Parafilm, 24-well; settings: 120 h, test rate of 12 ppm, 5 days after infestation
Source text: Example B8: Myzus persicae (Green Peach Aphid): Intrinsic Activity
Test compounds prepared from 10′000 ppm DMSO stock solutions were applied by pipette into 24-well microtiter plates and mixed with sucrose solution. The plates were closed with a stretched Parafilm. A plastic stencil with 24 holes was placed onto the plate and infested pea seedlings were placed directly on the Parafilm. The infested plate was closed with a gel blotting paper and another plastic stencil and then turned upside down. The samples were assessed for mortality 5 days after infestation.

[9] = system: Myzus persicae (Green Peach Aphid); assay: Example B7: Myzus persicae systemic activity, pea seedling roots in test solution; settings: 144 h, test rate of 24 ppm, 6 days after placing seedlings into test solutions
Procedure: Example B7: Myzus persicae (Green Peach Aphid): Systemic Activity
Roots of pea seedlings infested with an aphid population of mixed ages were placed directly into aqueous test solutions prepared from 10′000 DMSO stock solutions. The samples were assessed for mortality 6 days after placing seedlings into test solutions.

[10] = system: Plutella xylostella (Diamondback Moth); assay: Example B14: Plutella xylostella, artificial diet in 96-well plates, eggs; settings: 216 h, application rate of 500 ppm, 9 days after infestation
Procedure: Example B14: Plutella xylostella (Diamondback Moth)
96-well microtiter plates containing artificial diet were treated with aqueous test solutions, prepared from 10′000 ppm DMSO stock solutions, by a liquid handling robot. After drying, eggs (˜30 per well) were infested onto a netted lid which was suspended above the diet. The eggs hatch and L1 larvae move down to the diet. The samples were assessed for mortality 9 days after infestation.
The following compounds gave an effect of at least 80% average mortality at an application rate of 500 ppm: • P2, P3, P5, P6, P7, P9, P15, P16, P17, P18, P20, P22, P24, P25, P30, P31, P32, P33, P38.

[11] = system: Myzus persicae (Green Peach Aphid); assay: Example B6: Myzus persicae feeding/contact activity, sunflower leaf discs; settings: foliar, 144 h, application rate of 200 ppm, aphid population of mixed ages, 6 days after infestation
Procedure: Example B6: Myzus persicae (Green Peach Aphid): Feeding/Contact Activity
Sunflower leaf discs were placed onto agar in a 24-well microtiter plate and sprayed with aqueous test solutions prepared from 10′000 ppm DMSO stock solutions. After drying, the leaf discs were infested with an aphid population of mixed ages. The samples were assessed for mortality 6 days after infestation.

CC(NC(=O)c1cc(C(F)(F)F)cc(C(F)(F)F)c1)c1nc(-c2ncno2)nn1-c1ncccn1 (stereo not shown) [Compound P1, N-[1-[5-(1,2,4-oxadiazol-5-yl)-2-pyrimidin-2-yl-1,2,4-triazol-3-yl]ethyl]-3,5-bis(trifluoromethyl)benzamide]
≥ 80%: percent control (mortality, anti-feedant effect or growth inhibition) at 200 ppm [1] | percent effect (mortality or growth inhibition) at 200 ppm [2] | mortality at 200 ppm [3] | percent effect (mortality or growth inhibition) at 200 ppm [4]

COCc1nc(C(C)NC(=O)c2cc(C(F)(F)F)cc(C(F)(F)F)c2)n(-c2ncccn2)n1 (stereo not shown) [Compound P2, N-[1-[5-(methoxymethyl)-2-pyrimidin-2-yl-1,2,4-triazol-3-yl]ethyl]-3,5-bis(trifluoromethyl)benzamide]
≥ 80%: percent effect (mortality or growth inhibition) at 200 ppm [5] | mortality at 50 ppm [6] | percent control (mortality, anti-feedant effect or growth inhibition) at 200 ppm [7] | mortality at 12 ppm [8] | percent effect (mortality or growth inhibition) at 200 ppm [2] | mortality at 24 ppm [9] | percent effect (mortality or growth inhibition) at 200 ppm [4] | mortality at 500 ppm [10]

CC(NC(=O)c1cc(C(F)(F)F)cc(C(F)(F)F)c1)c1nc(Br)nn1-c1ncccn1 (stereo not shown) [Compound P4, N-[1-(5-bromo-2-pyrimidin-2-yl-1,2,4-triazol-3-yl)ethyl]-3,5-bis(trifluoromethyl) benzamide]
≥ 80%: percent effect (mortality or growth inhibition) at 200 ppm [5] | percent control (mortality, anti-feedant effect or growth inhibition) at 200 ppm [1] | mortality at 200 ppm [11] | percent control (mortality, anti-feedant effect or growth inhibition) at 200 ppm [7] | mortality at 12 ppm [8] | percent effect (mortality or growth inhibition) at 200 ppm [2] | mortality at 200 ppm [3]

CC(c1nc(C(=O)N(C)C)nn1-c1ncccn1)N(C)C(=O)c1cc(C(F)(F)F)cc(C(F)(F)F)c1 (stereo not shown) [Compound P11, 5-[1-[[3,5-bis(trifluoromethyl)benzoyl]-methyl-amino]ethyl]-N,N-dimethyl-1-pyrimidin-2-yl-1,2,4-triazole-3-carboxamide]
≥ 80%: percent control (mortality, anti-feedant effect or growth inhibition) at 200 ppm [1] | mortality at 200 ppm [11] | mortality at 50 ppm [6] | mortality at 12 ppm [8] | percent effect (mortality or growth inhibition) at 200 ppm [4]

CC(NC(=O)c1cc(C(F)(F)F)cc(C(F)(F)F)c1)c1nc(OC(F)(F)F)nn1-c1ccccn1 (stereo not shown) [Compound P25, N-[1-[2-(2-pyridyl)-5-(trifluoromethoxy)-1,2,4-triazol-3-yl]ethyl]-3,5-bis(trifluoromethyl) benzamide]
≥ 80%: percent effect (mortality or growth inhibition) at 200 ppm [5] | percent control (mortality, anti-feedant effect or growth inhibition) at 200 ppm [1] | percent control (mortality, anti-feedant effect or growth inhibition) at 200 ppm [7] | percent effect (mortality or growth inhibition) at 200 ppm [2] | percent effect (mortality or growth inhibition) at 200 ppm [4] | mortality at 500 ppm [10]

CC(NC(=O)c1cc(C(F)(F)F)cc(C(F)(F)F)c1)c1nc(OC(F)F)nn1-c1ncccn1 (stereo not shown) [Compound P28, N-[1-[5-(difluoromethoxy)-2-pyrimidin-2-yl-1,2,4-triazol-3-yl]ethyl]-3,5-bis(trifluoromethyl)benzamide]
≥ 80%: percent effect (mortality or growth inhibition) at 200 ppm [5] | percent control (mortality, anti-feedant effect or growth inhibition) at 200 ppm [1] | percent control (mortality, anti-feedant effect or growth inhibition) at 200 ppm [7] | mortality at 12 ppm [8] | percent effect (mortality or growth inhibition) at 200 ppm [2] | mortality at 200 ppm [3]

CC(NC(=O)c1cc(C(F)(F)F)cc(C(F)(F)F)c1)c1nc(OCC(F)F)nn1-c1ncccn1 (stereo not shown) [Compound P29, N-[1-[5-(2,2-difluoroethoxy)-2-pyrimidin-2-yl-1,2,4-triazol-3-yl]ethyl]-3,5-bis(trifluoromethyl) benzamide]
≥ 80%: percent effect (mortality or growth inhibition) at 200 ppm [5] | percent control (mortality, anti-feedant effect or growth inhibition) at 200 ppm [1] | percent control (mortality, anti-feedant effect or growth inhibition) at 200 ppm [7] | percent effect (mortality or growth inhibition) at 200 ppm [2] | percent effect (mortality or growth inhibition) at 200 ppm [4]

CC(NC(=O)c1cc(Cl)cc(C(F)(F)F)c1)c1nc(Br)nn1-c1ncccn1 (stereo not shown) [Compound P33, N-[1-(5-bromo-2-pyrimidin-2-yl-1,2,4-triazol-3-yl)ethyl]-3-chloro-5-(trifluoromethyl) benzamide]
≥ 80%: percent effect (mortality or growth inhibition) at 200 ppm [5] | percent control (mortality, anti-feedant effect or growth inhibition) at 200 ppm [1] | mortality at 50 ppm [6] | percent control (mortality, anti-feedant effect or growth inhibition) at 200 ppm [7] | percent effect (mortality or growth inhibition) at 200 ppm [2] | percent effect (mortality or growth inhibition) at 200 ppm [4] | mortality at 500 ppm [10]

CC(NC(=O)c1cc(C(F)(F)F)cc(C(F)(F)F)c1)c1nc(C=O)nn1-c1ncccn1 (stereo not shown) [Compound P38, N-[1-(5-formyl-2-pyrimidin-2-yl-1,2,4-triazol-3-yl)ethyl]-3,5-bis(trifluoromethyl) benzamide]
≥ 80%: mortality at 50 ppm [6] | mortality at 12 ppm [8] | percent effect (mortality or growth inhibition) at 200 ppm [4] | mortality at 500 ppm [10]
